According to PubChem BioAssay (NCI):
“And” between values parts separate entries of the source, which are not always exact repeats. Equal values may be shown once.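 Step 1: Grow cells in 96-well plates. Step 2: Expose to compound for 48 hours at 5 concentrations. Step 3: Interpolate endpoints linearly; if unreached, use highest concentration. Abbreviation: GI50, concentration required for 50% inhibition of growth. The concentration for full growth arrest is given as TGI.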 *1 amine or outer side, *2 acyl side, *3 side chain or, on linkers, in order; H or OH if unused. Where a SMILES comes first, the peptide text is derived from it. Bridges are numbered along the chain shown (N, C = ends). Roman numbers before positions name the chains, in order. [ ]: non-standard residue; d: D form. Actinocin(9to1) = Cc1c2oc3c(C)ccc(C(=O)[*:1])c3nc-2c(C(=O)[*:2])c(N)c1=O; Hyp = O=C(O)[CH]1C[CH](O)CN1; NMeV = CN[CH](C(=O)O)C(C)C; Sar = CNCC(=O)O

Columns and labels:
Experiment in all cases: inhibition of tumour cell growth, NCI panel, 48 h
[1] = tested on: KM12 colon
[2] = tested on: HL-60(TB) leukemia
[3] = tested on: SK-MEL-2 melanoma
[4] = tested on: SF-268 CNS
[5] = tested on: COLO 205 colon
[6] = tested on: HOP-92 NSCLC
[7] = tested on: U251 CNS
[8] = tested on: TK-10 renal
[9] = tested on: IGROV1 ovarian
[10] = tested on: SR leukemia
[11] = tested on: RPMI-8226 leukemia
[12] = tested on: HOP-62 NSCLC
[13] = tested on: BT-549 breast
[14] = tested on: MDA-MB-231 breast

SMILES | TGI [1] [µM] | TGI [2] [µM] | TGI [3] [µM] | TGI [4] [µM] | TGI [5] [µM] | TGI [6] [µM] | TGI [7] | TGI [8] [µM] | TGI [9] | TGI [10] [µM] | TGI [11] [µM] | TGI [12] [µM] | TGI [13] [µM] | TGI [14] [µM] | GI50 [2] [µM] | GI50 [3] [µM] | GI50 [14] [µM] | GI50 [8] [µM] | GI50 [12] [µM]
C#CC1(O)CCC2[C@@H]3CCc4cc(Oc5nc(F)nc(-c6c7ccccc7c(SCC)n6CCC)n5)ccc4C3CC[C@@]21C (stereo partly specified) | > 100 | > 100 | > 100 | > 100 | > 100 | > 100 | > 100 µM | > 100 | > 100 µM | > 100 | > 100 | > 100 | – | – | – | – | – | – | –
Cc1cc(Nc2ccc(NS(C)(=O)=O)cc2)c2c(ccc3nccc32)[nH]1 | 36.2 | – | 30.5 | 23 | 35.8 | 65.6 | 29 µM | > 100 | 86.3 µM | – | 40.7 | 44.5 | 43.9 | 33.4 | – | – | – | – | –
CC(=O)O[C@H]1C[C@@H](OC(C)=O)[C@@](C)(O)[C@@H]2[C@@H](OC(C)=O)[C@@]3(O)[C@H](/C=C(/CO)[C@H]4O[C@H]4[C@@H](OC(C)=O)[C@@]12C)OC(=O)[C@@H]3C | > 25 | – | > 25 | > 25 | > 25 | > 25 | 21.4 µM | > 25 | > 25 µM | – | > 25 | > 25 | > 25 | > 25 | – | – | – | – | –
C=CCN1/C(=C2\SC(=S)N(c3ccc(C)cc3)C2=O)Sc2c1ncn(C)c2=O | > 100 | > 100 | > 100 | > 100 | > 100 | > 100 | > 100 µM | > 100 | > 100 µM | > 100 | > 100 | > 100 | – | – | – | – | – | – | –
COC(=O)c1c2c(cc3c1CC1(Cc4cc5c(c(C(C)=O)c4C1)CCCC5)C3)CCCC2 (stereo unspecified) | > 100 | 46.3 | 44.5 | – | > 100 | > 100 | > 100 µM | > 100 | > 100 µM | 21 | 87.5 | > 100 | – | > 100 | – | – | – | – | –
Cc1cc(S(=O)(=O)Nc2nncn2-c2ccc(Cl)cc2)c(S)cc1Cl | > 10 | > 10 | > 10 | > 10 | > 10 | – | > 10 µM | > 10 | > 10 µM | – | > 10 | > 10 | > 10 | > 10 | – | – | – | – | –
O=C(c1cccs1)N1CCCN(C(=O)c2cccs2)C1=S | > 100 | > 100 | > 100 | > 100 | > 100 | – | > 100 µM | > 100 | > 100 µM | – | > 100 | 66.2 | > 100 | > 100 | – | – | – | – | –
C#C[C@@]1(O)CCCC2=CC3(CC[C@]21C)SCCS3 | > 100 | > 100 | > 100 | > 100 | > 100 | > 100 | > 100 µM | > 100 | > 100 µM | > 100 | > 100 | > 100 | – | > 100 | – | – | – | – | –
CCOC(=O)C(=CNC(=S)N=Nc1c(O)[nH]c2ccccc12)C(=O)OCC | > 100 | > 100 | > 100 | > 100 | > 100 | > 100 | > 100 µM | > 100 | – | > 100 | > 100 | > 100 | – | > 100 | – | – | – | – | –
c1ccc(SC23C4C5C6C4C2C6C53)nc1 (stereo unspecified) | > 100 | – | > 100 | > 31.6 | > 100 | > 100 | > 100 µM | > 100 | > 100 µM | > 35 | > 54 | > 100 | – | – | – | – | – | – | –
O=[N+]([O-])/C=C(\CS(=O)(=O)c1ccccc1)c1ccc2c(c1)OCO2 | 71.7 | > 100 | – | > 100 | > 100 | > 100 | > 100 µM | – | > 100 µM | > 100 | > 100 | > 100 | – | 64.1 | – | – | – | – | –
OC12c3ccccc3C1CCCCCCCCCC21OCCO1 (stereo unspecified) | > 100 | – | > 100 | > 100 | > 100 | – | > 100 µM | > 100 | > 100 µM | – | > 100 | > 100 | – | – | – | – | – | – | –
COC(=O)C1CCC(=O)N1C(c1cc(OC)c(OC)c(OC)c1)c1cccc2ccccc12 (stereo unspecified) | > 100 | > 100 | > 100 | > 100 | – | > 100 | > 100 µM | > 100 | > 100 µM | > 100 | > 100 | > 100 | – | > 100 | – | – | – | – | –
CCn1c2c(c3ccccc31)[C@@H](c1ccc(Cl)cc1)CC1C(=O)N(c3ccccc3)C(=O)C21 (stereo partly specified) | > 100 | > 100 | > 100 | > 100 | > 100 | 90.5 | > 100 µM | > 100 | > 100 µM | 98.8 | > 100 | > 100 | – | – | – | – | – | – | –
C=CCOC(=O)N1c2ccc(O)cc2[C@@]23O[C@@]24[C@@H]1C#C/C=C\C#C[C@]3(O)C(OC)(OC)C[C@@H]4C | 69.7 | 72 | 58.3 | > 100 | 33.1 | 77.9 | > 100 µM | > 100 | 80.8 µM | 62.2 | 91.5 | 85.9 | – | 52.8 | – | – | – | – | –
CCOC(=O)CCN1C(=O)C(=O)N(c2ccc(OC)cc2)C1=S | > 100 | > 100 | > 100 | > 100 | > 100 | > 100 | > 100 µM | > 100 | > 100 µM | > 100 | > 100 | > 100 | – | > 100 | – | – | – | – | –
Cc1c2oc3c(C)ccc(C(=O)NC4C(=O)NC(C(C)C)C(=O)N5CC(O)CC5C(=O)N(C)CC(=O)N(C)C(C(C)C)C(=O)OC4C)c3nc-2c(C(=O)NC2C(=O)NC(C(C)C)C(=O)N3CC(O)CC3C(=O)N(C)CC(=O)N(C)C(C(C)C)C(=O)OC2C)c(N)c1=O (stereo unspecified) (I: TV[Hyp][Sar][NMeV] / II: TV[Hyp][Sar][NMeV]; ester I:1-I:C, II:1-II:C; linker I:N-II:N via Actinocin(9to1); configuration not given here) | > 1 | > 1 | > 1 | > 1 | > 1 | > 1 | > 1 µM | > 1 | > 1 µM | > 1 | > 1 | > 1 | – | > 1 | – | – | – | – | –
O[C@@H]1CCC[C@@H]2NC[C@@H](c3ccc4c(c3)OCO4)[C@H]12 | > 100 | > 100 | > 100 | > 100 | > 100 | > 100 | > 100 µM | > 100 | > 100 µM | > 100 | > 100 | > 100 | – | > 100 | – | – | – | – | –
NCCCNOCCCN | > 100 | – | > 100 | > 100 | > 100 | > 100 | > 100 µM | > 100 | – | > 100 | > 100 | > 100 | – | > 100 | – | – | – | – | –
CCSc1nc(=S)n(-c2ccccc2)c(C)c1C(C)=O | > 100 | > 100 | > 100 | > 100 | > 100 | > 100 | > 100 µM | > 100 | > 100 µM | > 100 | > 100 | > 100 | – | > 100 | – | – | – | – | –
CCOC(=O)C(Cc1ccccc1)NC(=O)c1[nH]cnc1/N=N/N(C)C (stereo unspecified) | > 100 | > 100 | > 100 | > 100 | > 100 | – | > 100 µM | – | > 100 µM | > 100 | > 100 | > 100 | – | – | – | – | – | – | –
Cc1ccc(S(=O)(=O)C2=c3nc4ccccc4cc3=C3C(=O)c4ccccc4C(=O)C32)cc1 (stereo unspecified) | > 100 | > 100 | > 100 | > 100 | > 100 | > 100 | > 100 µM | > 100 | > 100 µM | > 100 | > 100 | > 100 | – | – | – | – | – | – | –
C=CCOC(OCC=C)/C(Br)=C/C | > 100 | > 100 | > 100 | 75.2 | 52.9 | > 100 | > 100 µM | > 100 | – | > 100 | > 100 | > 100 | – | > 100 | – | – | – | – | –
COc1c(Br)cc2ccccc2c1-c1c(OC)c(Br)cc2ccccc12 | > 100 | > 100 | > 100 | > 100 | > 100 | > 100 | > 100 µM | > 100 | > 100 µM | – | > 100 | > 100 | – | > 100 | – | – | – | – | –
COC(=O)CCNc1c2ccccc2nc2cccc([N+](=O)[O-])c12 | 0.00451 | 0.028 | 0.00284 | – | 0.0171 | – | 0.127 µM and 0.0318 µM | 0.0312 | 0.0261 µM and 0.0901 µM | – | 0.0236 | 0.00667 | – | 1.44 | 0.00274 | 0.00104 | 0.394 | 0.00304 | 0.0015
